Some test systems named below: BT-549 breast; HCC-2998 colon; HCT-116 colon; HS 578T breast; IGROV1 ovarian; M14 melanoma; MDA-MB-231 breast; MDA-MB-435; NCI-H23 lung; NCI-H460 lung; NCI-H522 lung; OVCAR-3 ovarian; OVCAR-4 ovarian; SK-MEL-5 melanoma; SN12C renal; SNB-19 CNS; SR leukemia; SW-620 colon; U251 CNS; UACC-257 melanoma.
Holding throughout (test): NCI anticancer screen, dose series, 48 h

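A five-concentration, 48-hour dose response in 96-well plates underlies each endpoint, interpolated linearly between surrounding concentrations. TGI marks complete inhibition of growth.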

As for `CC(C)C(=O)/C=C/c1c(Cl)cccc1Cl`, the TGI stood at 9.81 µM in the experiment on BT-549 breast; 29 µM in the experiment on HCC-2998 colon; 5.83 µM in the experiment on HCT-116 colon; 9.72 µM in the experiment with HS 578T breast; 14.2 µM with IGROV1 ovarian; 6.69 µM in the experiment with M14 melanoma. In addition, the TGI with MDA-MB-231 breast was determined as 8.94 µM; with MDA-MB-435, 14.7 µM; with NCI-H23 lung, 7.24 µM; in the experiment with NCI-H460 lung, 5.68 µM; with NCI-H522 lung, 3.11 µM; in the experiment with OVCAR-3 ovarian, 6.56 µM. Also, the TGI in the experiment with OVCAR-4 ovarian was 9.4 µM; in the experiment with SK-MEL-5 melanoma, 18.2 µM; with SN12C renal, 13.6 µM; in the experiment with SNB-19 CNS, 22.6 µM; in the experiment with SR leukemia it was more than 100 µM; with SW-620 colon, 9.13 µM. The TGI stood at 11.7 µM in the experiment on U251 CNS and 20.5 µM in the experiment on UACC-257 melanoma.
`CCOC(=O)CC1Nc2ccccc2C12CCc1c([nH]c3ccccc13)C2C(=O)OCC` (stereo not given): the TGI is more than 100 µM in the experiment on BT-549 breast; more than 100 µM with HCC-2998 colon; more than 100 µM in the experiment on HCT-116 colon; more than 100 µM with HS 578T breast; 61.7 µM in the experiment on IGROV1 ovarian; more than 100 µM in the experiment with M14 melanoma. The TGI in the experiment with MDA-MB-231 breast, in the experiment with MDA-MB-435, in the experiment on NCI-H23 lung, with NCI-H460 lung, in the experiment with NCI-H522 lung and with OVCAR-3 ovarian was more than 100 µM each time. Further, the TGI in the experiment with OVCAR-4 ovarian, with SK-MEL-5 melanoma, in the experiment on SN12C renal, in the experiment on SNB-19 CNS, with SR leukemia and with SW-620 colon was more than 100 µM each time. The TGI with U251 CNS and in the experiment on UACC-257 melanoma was more than 100 µM each time.
Regarding `NS(=O)(=O)c1ccc(NC(=O)c2ccc3nc4ccccc4c(Nc4ccc(S(N)(=O)=O)cc4)c3c2)cc1`, the TGI in the experiment with BT-549 breast, with HCC-2998 colon, in the experiment on HCT-116 colon, in the experiment on HS 578T breast, in the experiment on IGROV1 ovarian and in the experiment with M14 melanoma was more than 100 µM throughout. The TGI in the experiment on MDA-MB-231 breast, in the experiment on MDA-MB-435, in the experiment on NCI-H23 lung, with NCI-H460 lung, with NCI-H522 lung and in the experiment with OVCAR-3 ovarian was more than 100 µM throughout. Besides, the TGI in the experiment on OVCAR-4 ovarian, in the experiment on SK-MEL-5 melanoma, with SN12C renal, with SNB-19 CNS, in the experiment with SR leukemia and in the experiment on SW-620 colon was more than 100 µM each time. Moreover, the TGI in the experiment on U251 CNS and with UACC-257 melanoma was more than 100 µM in each case.
In the case of `O=C(/C=C/c1cccc(Br)c1)N1CCN(CCOC(c2ccccc2)c2ccccc2)CC1`, the TGI in the experiment with BT-549 breast was 84.2 µM; in the experiment with HCC-2998 colon, more than 100 µM; with HCT-116 colon it was more than 100 µM; in the experiment on HS 578T breast, more than 100 µM; in the experiment with IGROV1 ovarian, more than 100 µM; with M14 melanoma it was more than 100 µM. Besides, the TGI in the experiment with MDA-MB-231 breast, in the experiment on MDA-MB-435, in the experiment with NCI-H23 lung, with NCI-H460 lung, in the experiment with NCI-H522 lung and in the experiment with OVCAR-3 ovarian was more than 100 µM throughout. For the same molecule, the TGI with OVCAR-4 ovarian is more than 100 µM; in the experiment on SK-MEL-5 melanoma, 30.7 µM; in the experiment with SN12C renal, more than 100 µM; in the experiment with SNB-19 CNS, more than 100 µM; in the experiment with SR leukemia, 38.4 µM; in the experiment with SW-620 colon it was more than 100 µM. Further, the TGI in the experiment on U251 CNS and in the experiment on UACC-257 melanoma was more than 100 µM in each case.
Regarding `CN1CCN(c2n[nH]c(=O)c3c2nnn3C2CCCCC2)CC1`, the TGI with BT-549 breast, in the experiment with HCC-2998 colon, with HCT-116 colon, with HS 578T breast, in the experiment with IGROV1 ovarian and in the experiment on M14 melanoma was more than 100 µM in each case. For the same molecule, the TGI in the experiment on MDA-MB-231 breast, in the experiment with MDA-MB-435, in the experiment on NCI-H23 lung, in the experiment with NCI-H460 lung, in the experiment with NCI-H522 lung and in the experiment on OVCAR-3 ovarian was more than 100 µM each time. For the same molecule, the TGI in the experiment on OVCAR-4 ovarian, with SK-MEL-5 melanoma, with SN12C renal, with SNB-19 CNS, in the experiment on SR leukemia and with SW-620 colon was more than 100 µM each time. Also, the TGI in the experiment with U251 CNS and in the experiment with UACC-257 melanoma was more than 100 µM in each case.
As to `CN(Cc1cnc2nc(N)nc(N)c2n1)c1ccc(C(=O)NCCCC(=O)O)cc1`, the TGI in the experiment on BT-549 breast, in the experiment with HCC-2998 colon, in the experiment on HCT-116 colon, in the experiment on HS 578T breast, in the experiment with IGROV1 ovarian and with M14 melanoma was more than 100 µM in each case. Besides, the TGI in the experiment with MDA-MB-231 breast, in the experiment on MDA-MB-435, with NCI-H23 lung, in the experiment with NCI-H460 lung, in the experiment on NCI-H522 lung and in the experiment on OVCAR-3 ovarian was more than 100 µM throughout. Also, the TGI in the experiment on OVCAR-4 ovarian, with SK-MEL-5 melanoma, in the experiment with SN12C renal, in the experiment on SNB-19 CNS, in the experiment with SR leukemia and in the experiment with SW-620 colon was more than 100 µM throughout. For the same molecule, the TGI with U251 CNS and with UACC-257 melanoma was more than 100 µM throughout.
`Cn1c(=O)cc(Nc2ccc(N)cc2)[nH]c1=O`: the TGI in the experiment on BT-549 breast, in the experiment on HCC-2998 colon, in the experiment with HCT-116 colon, in the experiment on HS 578T breast, with IGROV1 ovarian and with M14 melanoma was more than 100 µM each time. Besides, the TGI in the experiment on MDA-MB-231 breast, with MDA-MB-435, with NCI-H23 lung, with NCI-H460 lung, with NCI-H522 lung and in the experiment with OVCAR-3 ovarian was more than 100 µM throughout. In addition, the TGI in the experiment on OVCAR-4 ovarian, in the experiment with SK-MEL-5 melanoma, in the experiment with SN12C renal, with SNB-19 CNS, in the experiment with SR leukemia and in the experiment on SW-620 colon was more than 100 µM in each case. Further, the TGI with U251 CNS and in the experiment on UACC-257 melanoma was more than 100 µM throughout.

These data come from PubChem BioAssay (NCI).
